Laboratory results published in patent publication US20240294545A1 (CSPC Zhongqi Pharmaceutical Technology (Shijiazhuang) Co., …, priority 2020, published 2024).
Read-outs that look alike come from different tables or passages of the source. Marks after values point to notes of the source that are not given here.

Assays:
ATM = ATM (Homo sapiens (Human), UniProt Q13315); test: Caliper mobility shift assay for ATM; format: biochemical; conditions: read-out: IC50 of inhibitory activity on ATM kinase
Method: 1.2 Determination of the Inhibitory Activities of Compounds on ATM: Caliper Mobility Shift Assay for ATM
To a 96-well plate, 98 μL of DMSO and 2 μL of the 10 mM stock solution were added and mixed evenly so that the concentration of the solution was 200 μM.
Based on the inhibitory rates of the compound at different concentrations, IC50 was calculated according to the formula: Y=Bottom+(Top−Bottom)/(1+(IC50/X)^HillSlope).

[1] = system: subcutaneous xenograft tumor of human colon cancer cell line HT-29; test: HT-29 subcutaneous xenograft, combined with irinotecan liposome injection; format: in vivo, NU/NU mice; conditions: for inhibitory effect on tumor volume and tumor weight, in words: combined with irinotecan liposome injection, compared with AZD1390; for D 16 TGI / D 16 TV (MEAN ± SD) / Tumor weight / Tumor weight inhibitory rate: compound 25 mg/kg intragastric + irinotecan liposome 10 mg/kg ip; for D 16 TGI / D 16 TV (MEAN ± SD): day 16; for Tumor weight / Tumor weight inhibitory rate: end of test
Method: 7 Efficacy Test of the Compounds of the Present Disclosure Combined with Irinotecan Liposome Injection on Inhibiting the Growth of Subcutaneous Xenograft Tumor of Human Colon Cancer Cell Line HT-29
7.1 Experimental Animals: NU/NU Mice, SPF, Female, 20 to 30 g.
Irinotecan liposome injection (HE072), 43 mg: 10 mL, milky white liquid, batch No. B37191202, provided by Preparation Research Institute 2 from CSPC Zhongqi Pharmaceutical Technology (Shijiazhuang) Co., Ltd., diluted to an appropriate concentration with 5% glucose injection while testing.
HT-29 cell, provided by Nanjing Kebai Biotechnology Co., Ltd.; 5A culture medium:fetal bovine serum=90%:10%, 37° C., 5% CO2.
NU/NU nude mice were subcutaneously inoculated with HT-29 human colon cancer cells. When the mean tumor volume reached about 170 mm^3 (9 days after inoculation), the animals were evenly divided into groups according to the tumor volume (d0), with 6 mice in each group. 10 mg/kg of HE072 was administered intraperitoneally once a week for 1 time. Vehicle control, 25 mg/kg of A-6, 25 mg/kg of A-46, and 25 mg/kg of AZD1390 were administered intragastrically once a day, from Monday to Thursday every week except Friday to Sunday, for 1 week (4 times). The tumor volume was measured twice a week, the body weight of mouse was weighed every day, and the data were recorded. The tumor volume (TV) was calculated according to the formula: TV=½×a×b2, wherein a and b represent the long and short diameters of tumor, respectively. Tumor growth inhibitory rate TGI (%)=[1−(Ti−T0)/(Vi−V0)]×100, wherein Ti represents the mean tumor volume of a given treatment group on a certain day; TO represents the mean tumor volume of this treatment group at the beginning of administration; Vi represents the mean tumor volume of the vehicle control group on a certain day (the same day as that in Ti); V0 represents the mean tumor volume of the vehicle control group at the beginning of administration. At the end of the test (d17), the animals were sacrificed, the tumors were stripped and weighed, and the tumor weight inhibitory rates were calculated.

ATM-phosphorylated KAP1 = test: Intracellular ATM-phosphorylated KAP1 level, ICW assay in MCF7 cells; format: cell-based, Human; conditions: MCF7 cells, 2 h compound, 10 Gy irradiation, further 1 h, read-out: pKAP1 IC50
Method: 4 Inhibition on Intracellular ATM-Phosphorylated KAP1 Level by the Compounds of the Present Disclosure: ICW Assay
• Cell: Human breast cancer cell line MCF7 • Materials and reagents:
4.2 Experimental Procedures
• (1) Cell inoculation • MCF7 cells were inoculated on a 384-well plate, 10000 cells/well (25 μL/well), and cultured overnight at 37° C. with 5% CO2. • (2) Activity detection • 1) The compound was formulated into a 100 mM solution with DMSO and then sequentially diluted with a gradient of 1:3 to yield a total of 10 concentration gradients, wherein the maximum concentration was 100 μM. • 2) 25 nL of each of the compound solutions with gradient concentrations prepared in step 1) was added to each well of the cell plate (Corning #356663) by using I-DOT One, resulting in a final concentration of 100 nM (maximum dose). • 3) The cell plate containing compound was incubated at 37° C. with 5% CO2 for 2 h. After 2 h, the cell plate was irradiated with a dose of 10 Gy, and then further incubated for 1 h. • 4) 25 μL of 8% paraformaldehyde was added to each well, followed by incubating at room temperature for 20 min. • 5) The 8% paraformaldehyde was discarded, followed by adding 0.1% TrintonX-100 and incubating at room temperature for 30 min. • 6) Odessey blocking buffer was added at 50 μL/well, followed by incubating at room temperature for 1.5 h. • 7) The Odessey blocking buffer was discarded, and then a primary antibody (Phospho-KAP1, 1:2000 dilution) was added, followed by incubating overnight at 4° C. • 8) The primary antibody was removed, followed by washing with PBS+0.1% Tween 20 for 5 times. • 9) DNA dye DRAQ5 coated with a second antibody (IRDye 800CW Goat anti-Rabbit, 1:4000 dilution) was added, followed by incubating at room temperature for 1 h. • 10) The second antibody was removed, followed by washing with PBS+0.1% Tween 20 for 5 times. • 11) PBS+0.1% Tween 20 was sucked off with Odyssey. • (3) Data analysis • 1) the relative ratio of Channel 800/Channel 700 for each well was detected. • 2) % of KAP1 phosphorylation was calculated according to the following formula:
% of KAP1 phosphorylation=[(Ratiocmpd−(Ratio)Positive)/((Ratio)Vehicle−(Ratio)Positive]*100 • (Ratio)Positive: the mean value of the test values of each positive control well in the test cell plate; • (Ratio)Vehicle: the mean value of the test values of each negative control well in the test cell plate. • 3) the IC50 of each compound was calculated and the dose-effect curve was plotted: % of KAP1 phosphorylation and log of compound's concentration were fit by using Graphpad 8.0 so as to calculate the IC50.
[formula] • X: log of compound's concentration • Y: % of KAP1 phosphorylation

[2] = system: subcutaneous xenograft tumor of human glioblastoma LN-18; test: LN-18 subcutaneous xenograft, combined with radiotherapy; format: in vivo, NOG mice; conditions: day 17
Method: 9 Efficacy Test of the Compounds of the Present Disclosure Combined with Radiotherapy on Inhibiting the Growth of Subcutaneous Xenograft Tumor of Human Glioblastoma LN-18
9.1 Experimental Animals: NOG Mice, SPF, Female, 18 to 22 g.
LN-18 tumor cells, DMEM medium:fetal bovine serum=95%:5%, accompanied by adding 100 U/mL penicillin and 100 μg/mL streptomycin, 37° C., 5% CO2.
LN18 tumor cells resuspended in serum-free DMEM medium were inoculated subcutaneously in the right costal region of experimental animals at 1.5*10^7/0.15 mL, and the animals were grouped when the tumor grew to 100 to 150 mm^3. Radiotherapy was performed 1 h after administration of compounds.
Tumor volume: The tumor volume was measured twice a week with a vernier caliper, and the long diameter and short diameter of tumor were measured. The tumor volume was calculated as follows: tumor volume (TV)=0.5×long diameter×short diameter^2. Tumor growth inhibitory rate (TGI %) was calculated according to the tumor volume. TVXn represents the mean tumor volume on day n of the treatment group, TVX0 represents the mean tumor volume on day 0 of the treatment group, TVMn represents the mean tumor volume on day n of the control group, and TVM0 represents the mean tumor volume on day 0 of the control group.

[3] = compound 20 mg/kg intragastric qd × 5 + IR 1 Gy
[4] = compound 10 mg/kg intragastric qd × 5 + IR 1 Gy

ATM, sequence (Q13315 whole entry): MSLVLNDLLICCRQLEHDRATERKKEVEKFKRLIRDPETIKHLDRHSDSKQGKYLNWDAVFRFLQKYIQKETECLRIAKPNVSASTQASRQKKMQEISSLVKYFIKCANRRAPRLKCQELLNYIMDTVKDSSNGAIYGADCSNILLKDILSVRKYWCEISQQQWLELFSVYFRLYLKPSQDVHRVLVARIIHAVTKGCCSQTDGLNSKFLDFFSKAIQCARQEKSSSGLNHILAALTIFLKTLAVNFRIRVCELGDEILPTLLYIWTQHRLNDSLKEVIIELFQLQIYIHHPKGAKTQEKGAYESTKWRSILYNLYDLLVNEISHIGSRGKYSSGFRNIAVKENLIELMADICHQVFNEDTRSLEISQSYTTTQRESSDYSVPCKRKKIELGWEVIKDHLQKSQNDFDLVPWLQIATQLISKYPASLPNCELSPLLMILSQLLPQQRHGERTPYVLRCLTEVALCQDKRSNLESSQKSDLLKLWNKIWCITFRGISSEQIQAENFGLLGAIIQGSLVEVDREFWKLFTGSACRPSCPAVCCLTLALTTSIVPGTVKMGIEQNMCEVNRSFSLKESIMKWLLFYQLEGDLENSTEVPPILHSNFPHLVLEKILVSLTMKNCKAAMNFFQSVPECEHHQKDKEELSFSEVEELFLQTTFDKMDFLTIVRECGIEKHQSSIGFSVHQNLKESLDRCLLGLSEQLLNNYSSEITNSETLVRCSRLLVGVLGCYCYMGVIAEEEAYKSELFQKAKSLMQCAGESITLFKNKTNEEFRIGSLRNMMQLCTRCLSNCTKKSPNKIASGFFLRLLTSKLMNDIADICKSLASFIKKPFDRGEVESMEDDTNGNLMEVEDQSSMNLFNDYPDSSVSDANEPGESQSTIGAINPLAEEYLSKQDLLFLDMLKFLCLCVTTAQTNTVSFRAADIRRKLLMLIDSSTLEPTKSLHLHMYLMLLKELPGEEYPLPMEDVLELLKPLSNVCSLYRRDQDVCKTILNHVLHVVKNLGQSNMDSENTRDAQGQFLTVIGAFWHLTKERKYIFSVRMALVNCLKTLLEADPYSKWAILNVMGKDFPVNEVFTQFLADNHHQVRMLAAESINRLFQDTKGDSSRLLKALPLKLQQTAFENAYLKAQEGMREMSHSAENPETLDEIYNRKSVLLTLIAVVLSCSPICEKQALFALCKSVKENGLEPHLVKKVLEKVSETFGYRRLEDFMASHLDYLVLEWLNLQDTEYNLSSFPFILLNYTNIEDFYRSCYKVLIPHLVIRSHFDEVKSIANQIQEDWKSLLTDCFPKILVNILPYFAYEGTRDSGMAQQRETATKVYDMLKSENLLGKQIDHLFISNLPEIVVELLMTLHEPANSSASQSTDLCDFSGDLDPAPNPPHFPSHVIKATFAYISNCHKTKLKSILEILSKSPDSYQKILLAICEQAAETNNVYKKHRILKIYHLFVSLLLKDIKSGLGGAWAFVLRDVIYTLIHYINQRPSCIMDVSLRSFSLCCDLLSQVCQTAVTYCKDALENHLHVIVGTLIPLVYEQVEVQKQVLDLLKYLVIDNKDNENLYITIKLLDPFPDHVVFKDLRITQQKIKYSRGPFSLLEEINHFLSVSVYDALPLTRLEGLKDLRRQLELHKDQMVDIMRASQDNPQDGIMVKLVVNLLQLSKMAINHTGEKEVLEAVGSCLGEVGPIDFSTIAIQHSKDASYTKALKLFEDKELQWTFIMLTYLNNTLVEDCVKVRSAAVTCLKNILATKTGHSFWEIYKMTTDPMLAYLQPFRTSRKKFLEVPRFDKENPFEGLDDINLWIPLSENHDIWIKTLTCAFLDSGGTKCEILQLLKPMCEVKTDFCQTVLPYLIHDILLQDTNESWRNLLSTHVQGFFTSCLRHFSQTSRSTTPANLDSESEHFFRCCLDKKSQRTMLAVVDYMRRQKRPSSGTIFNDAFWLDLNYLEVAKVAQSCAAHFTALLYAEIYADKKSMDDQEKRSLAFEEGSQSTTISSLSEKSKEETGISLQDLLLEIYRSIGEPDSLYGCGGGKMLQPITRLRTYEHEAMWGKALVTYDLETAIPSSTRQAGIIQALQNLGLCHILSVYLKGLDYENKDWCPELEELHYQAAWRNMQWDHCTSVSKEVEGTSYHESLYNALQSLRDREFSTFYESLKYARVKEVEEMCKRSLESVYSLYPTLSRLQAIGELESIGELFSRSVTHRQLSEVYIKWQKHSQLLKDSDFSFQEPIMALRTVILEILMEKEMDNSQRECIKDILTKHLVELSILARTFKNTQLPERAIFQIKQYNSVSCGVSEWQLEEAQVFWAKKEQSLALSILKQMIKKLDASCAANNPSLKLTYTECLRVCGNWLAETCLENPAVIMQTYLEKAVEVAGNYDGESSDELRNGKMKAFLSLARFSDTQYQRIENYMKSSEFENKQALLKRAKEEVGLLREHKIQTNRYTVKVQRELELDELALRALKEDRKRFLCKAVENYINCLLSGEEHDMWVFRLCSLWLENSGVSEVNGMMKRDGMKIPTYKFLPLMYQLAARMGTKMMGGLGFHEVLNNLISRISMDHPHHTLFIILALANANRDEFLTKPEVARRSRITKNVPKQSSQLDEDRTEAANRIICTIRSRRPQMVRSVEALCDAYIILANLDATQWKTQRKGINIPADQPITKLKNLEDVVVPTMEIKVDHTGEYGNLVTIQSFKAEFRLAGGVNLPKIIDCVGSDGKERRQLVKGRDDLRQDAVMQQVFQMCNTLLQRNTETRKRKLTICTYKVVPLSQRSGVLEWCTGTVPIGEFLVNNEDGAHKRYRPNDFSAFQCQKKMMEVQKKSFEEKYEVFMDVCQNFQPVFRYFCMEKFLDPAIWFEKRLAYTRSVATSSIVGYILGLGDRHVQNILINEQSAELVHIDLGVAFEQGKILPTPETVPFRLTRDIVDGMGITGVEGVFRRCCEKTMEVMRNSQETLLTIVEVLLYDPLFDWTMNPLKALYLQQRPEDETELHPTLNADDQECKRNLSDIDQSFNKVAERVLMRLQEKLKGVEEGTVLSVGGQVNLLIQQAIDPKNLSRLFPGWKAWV

Cn1c(=O)n2c3c4c(c(-c5ccc(OCCCN6CCCCC6)nc5)c(F)cc4ncc31)OCC2(C)C [Example A-6, 6-fluoro-2,10,10-trimethyl-7-(6-(3-(piperidin-1-yl)propoxy)pyridin-3-yl)-9,10-dihydro-8-oxa-2,4,10a-triazanaphtho[2,1,8-cde]azulen-1(2H)-one]
IC50 (ATM): 0.37 nM
inhibitory effect on tumor volume and tumor weight, in words [1]: higher than those of AZD1390
D 16 TGI [1]: 100.4%
D 16 TV (MEAN ± SD) [1]: 163.8 ± 62.8***^### mm^3
Tumor weight [1]: 0.12 ± 0.03 g
Tumor weight inhibitory rate [1]: 82.4%

C[C@@H]1CNc2c(-c3ccc(OCCCN4CCCCC4)nc3)ccc3ncc4c(c23)n1c(=O)n4C [Example A-199, (R)-2,10-dimethyl-7-(6-(3-(piperidin-1-yl)propoxy)pyridin-3-yl)-2,8,9,10-tetrahydro-1H-2,4,8,10a-tetraazanaphtho[2,1,8-cde]azulen-1(2H)-one]
IC50 (ATM): 0.92 nM
IC50 (ATM-phosphorylated KAP1): 0.78 nM

Cn1c(=O)n2c3c4c(c(-c5ccc(OCCCN6CCCCC6)nc5)c(F)cc4ncc31)NCC21CCC1 [Example A-192, 6-fluoro-2-methyl-7-(6-(3-(piperidin-1-yl)propoxy)pyridin-3-yl)-8,9-dihydrospiro[2,4,8,10a-tetraazanaphtho[2,1,8-cde]azulene-10,1′-cyclobutan]-1(2H)-one]
IC50 (ATM): 0.53 nM
D 17 TGI [2, 3]: 79.6%
D 17 TV (MEAN ± SD) [2, 3]: 323 ± 114***^# mm^3
IC50 (ATM-phosphorylated KAP1; Homo sapiens, light or radiation study): 1.44 nM

C[C@H]1CNc2c(-c3ccc(OCCCN4CCCCC4)nc3)c(F)cc3ncc4c(c23)n1c(=O)n4C [Example A-191, (S)-6-fluoro-2,10-dimethyl-7-(6-(3-(piperidin-1-yl)propoxy)pyridin-3-yl)-2,8,9,10-tetrahydro-1H-2,4,8,10a-tetraazanaphtho[2,1,8-cde]azulen-1(2H)-one]
IC50 (ATM): 0.69 nM
D 17 TGI [2, 4]: 76.9%
D 17 TV (MEAN ± SD) [2, 4]: 347 ± 64***^ mm^3

Cn1c(=O)n2c3c4c(c(-c5ccc(OCCCN6CCCCC6)nc5)c(F)cc4ncc31)OCC21CC1 [Example A-11, 6-fluoro-2-methyl-7-(6-(3-(piperidin-1-yl)propoxy)pyridin-3-yl)-2,9-dihydro-1H-spiro[8-oxa-2,4,10a-triazanaphtho[2,1,8-cde]azulene-10,1-cyclopropan]-1-one]
IC50 (ATM): 0.54 nM

Cn1c(=O)n2c3c4c(c(-c5ccc(OCCCN6CCCCC6)nc5)c(F)cc4ncc31)OC[C@@H]2Cc1ccccc1 [Example A-13, (S)-10-benzyl-6-fluoro-2-methyl-7-(6-(3-(piperidin-1-yl)propoxy)pyridin-3-yl)-9,10-dihydro-8-oxa-2,4,10a-triazanaphtho[2,1,8-cde]azulen-1(2H)-one]
IC50 (ATM): 0.4 nM

CN(C)CCCOc1ccc(-c2c(F)cc3ncc4c5c3c2OCC(C)(C)n5c(=O)n4C)cn1 [Example A-46, 7-(6-(3-(dimethylamino)propoxy)pyridin-3-yl)-6-fluoro-2,10,10-trimethyl-9,10-dihydro-8-oxa-2,4,10a-triazanaphtho[2,1,8-cde]azulen-1(2H)-one]
IC50 (ATM): 0.52 nM
inhibitory effect on tumor volume and tumor weight, in words [1]: higher than those of AZD1390
D 16 TGI [1]: 102.2%
D 16 TV (MEAN ± SD) [1]: 149.5 ± 67.4***^### mm^3
Tumor weight [1]: 0.12 ± 0.06 g
Tumor weight inhibitory rate [1]: 82.0%
